{"source": "patent US11857513B2", "about": "“Selective inhibitor of exon 20 insertion mutant EGFR” (Taiho Pharmaceutical Co., Ltd., priority 2016, dated 2024)", "key": {"NIH3T3-EGFRinsASV cells": {"system": "NIH3T3-EGFRinsASV cells", "assay": "Antitumor effect, nude mice subcutaneously transplanted with NIH3T3-EGFRinsASV cells", "format": "in vivo, mouse", "settings": "20 mg/kg orally once daily, 14 days", "procedure": "(§1) Nude mice were subcutaneously transplanted with NIH3T3-EGFRinsASV cells, NIH3T3-EGFRinsSVD cells, or H1975-EGFRinsSVD cells to which human mutant EGFR was introduced. At the point at which the tumor volume of the tumor engrafted in the nude mice grew to about 100 to 200 mm^3, the mice were allocated into groups, 5 to 6 mice for each group, by stratified randomization such that the average tumor volume between the groups was uniform.\n(§2) The maximum tolerated dose was determined in accordance with the “Guidelines Involving Experimental Neoplasia Proposals in Mice and Rats” of the National Cancer Institute (NCI), from a humanitarian perspective.\n(§3) To compare the changes in growth of tumor over time due to administration of the individual test compounds, a relative tumor volume (which hereinafter also referred to as “RTV”) was calculated based on the tumor volume at the time the mice were divided into groups (which is taken as 1 for the tumor growth ratio), using the following formula. For a toxicity index, the body weight was measured over time, and the average body weight change (which hereinafter also referred to as “BWC (%)”) from the day on which the mice were divided into groups was calculated in accordance with the following formula.\n(§4) RTV=(the tumor volume on the day a tumor volume was measured)/(the tumor volume on the day mice were divided into groups) […]"}, "NIH3T3-EGFRinsSVD cells": {"system": "NIH3T3-EGFRinsSVD cells", "assay": "Antitumor effect, nude mice subcutaneously transplanted with NIH3T3-EGFRinsSVD cells", "format": "in vivo, mouse", "settings": "20 mg/kg orally once daily, 14 days", "procedure": "as §1, §2, §3, §4"}, "H1975-EGFRinsSVD cells [1]": {"system": "H1975-EGFRinsSVD cells", "assay": "Antitumor effect, nude mice subcutaneously transplanted with H1975-EGFRinsSVD cells", "format": "in vivo, mouse", "settings": "20 mg/kg orally once daily, 14 days", "procedure": "as §1, §2, §3, §4"}, "NIH3T3-EGFRinsNPH cells": {"system": "NIH3T3-EGFRinsNPH cells", "assay": "Antitumor effect, nude mice subcutaneously transplanted with NIH3T3-EGFRinsNPH cells", "settings": "NIH3T3 EGFRinsNPH, 20 mg/kg orally once daily, 10 days", "procedure": "Nude mice were subcutaneously transplanted with NIH3T3-EGFRinsNPH cells into which human mutant EGFR was introduced. At the point at which the tumor volume of the tumor engrafted in the nude mice grew to about 100 to 200 mm^3, the mice were allocated into groups, 6 mice for each group, by stratified randomization such that the average tumor volume between the groups was uniform.\nas §2\nTo compare the changes in growth of tumor over time due to administration of the individual test compounds, the tumor volume (which hereinafter also referred to as “TV”) of each mouse was calculated using the following formula. For a toxicity index, the body weight was measured over time, and the body weight change (which hereinafter also referred to as “BWC (%)”) from the day on which the mice were divided into groups was calculated in accordance with the following formula. FIGS. 9 and 10 illustrate changes in the average TV and the average BWC of the mice.\nTV (mm^3)=(the major axis x the short axis^2)/2\n(§5) BWC (%)=(the body weight measured on body weight measurement day)/(the body weight on the day mice were divided into groups)\nThe T/C (%) on the final evaluation day was calculated in accordance with the following formula.\nT/C (%)=(the tumor volume of the group administered with a test compound)/(the tumor volume of the control group)"}, "[2]": {"system": "H1975-EGFRinsSVD-Luc cells", "assay": "Life-extending effect, nude mice transplanted with H1975-EGFRinsSVD-Luc cells in the lung", "settings": "H1975 EGFR insSVD in lung, 20 mg/kg orally once daily", "procedure": "H1975-EGFRinsSVD-Luc strain was established by introducing a luciferase into H1975-EGFRinsSVD, which is a human mutant EGFR-introduced cell line. A pJTI (trademark) Fast DEST vector, which was prepared by encoding a Luciferase into NCI-H1975-EGFRinsSVD cells, was introduced into […], together with a pJTI (trademark) PhiC31 integrase expression vector, by electroporation using an Amaxa (trademark) Cell Line Nucleofector (trademark) Kit R, followed by selection using hygromycin B (Nacalai Tesque Inc.).\nIn evaluation of the life-extending effect, an equivalent amount of Matrigel was added to a suspension of cultured H1975-EGFRinsSVD-Luc cells to prepare a cell suspension, and the cell suspension was transplanted into the right lung of nude mice. On day 6 after transplantation, all of the living mice were administered a luciferin through the tail vein, and allocated into groups, 9 mice for each group, by stratified randomization such that the average luminescence intensity between the groups was uniform. […] The maximum tolerated dose was determined in accordance with the “Guidelines Involving Experimental Neoplasia Proposals in Mice and Rats” of the National Cancer Institute (NCI), from a humanitarian perspective.\nTo evaluate the life-extending effect, the survival period after transplantation was observed, and the survival time of each mouse was determined. From the survival time, the median survival time (which hereinafter also referred to as “MST”) of each group was calculated, and the survival period-extending effect (i.e., an increase in lifespan, which hereinafter also referred to as “I.L.S. (%)”) was calculated based on MST of the control group and the group administered with a test compound, using the following formula. For a toxicity index, the body weight was measured over time, and the body weight change (which hereinafter also referred to as “BWC (%)”) from the day on which the mice were divided into groups was calculated in accordance with the following formula.\nT: MST of the group administered with a test compound\nC: MST of the control group\nas §5"}, "[3]": {"assay": "Time of maximum blood concentration after oral administration in nude mice", "format": "in vivo, mouse", "settings": "single oral administration, around"}, "A431 cells": {"system": "A431 cells", "assay": "Cell growth inhibitory effect on wild-type EGFR-expressing human cell line (CellTiter-Glo)", "format": "cell-based", "settings": "A-431, 72 h, read-out: GI50 A431", "procedure": "(§6) To evaluate the inhibitory activity of compounds against wild-type EGFR and mutant EGFR, the following cells were used: NCI-H1975 cells, which are human pulmonary adenocarcinoma cell lines expressing EGFR with mutation D770_N771insSVD by gene modification (which hereinafter also referred to as “H1975-EGFRinsSVD”); and A431 cells, which are human epithelial cancer cell lines expressing wild-type EGFR. H1975-EGFRinsSVD cells were prepared as follows. […] XTN (trademark) TALENs Site-Specific Nucleases (Transposagen) were introduced into the cells by electroporation using the Amaxa (trademark) Cell Line Nucleofector (trademark) Kit R, and endogenous-EGFR (T790M/L858R)-knockout cells were selected by sequencing.\n(§7) To evaluate the cell growth inhibitory effect, individual types of cells were suspended in a medium recommended by ATCC. The cell suspensions were seeded in each well of respective 96-well flat-bottom plates such that the cell count per well was 3,000, and incubated in a 5% CO2-containing incubator at 37° C. for 1 day. […] The cell count at the time incubation started (day 0) and the cell count after incubation (day 3) were measured using a CellTiter-Glo (trademark) Luminescent Cell Viability Assay (Promega Corporation) in accordance with the manufacturer's recommended protocol.\n(§8) 1) If T on day 3≥C on day 0: Growth Rate (%)=(T on day 3−C on day 0)/(C on day 3−C on day 0)×100 T: the luminescence intensity of a well to which a test compound was added. C: the luminescence intensity of a well to which the test compound was not added. Day 0: the day on which a test compound was added. Day 3: the day on which evaluation was performed. 2) If T on day 3<C on day 0: Growth Rate (%)=(T on day 3−C on day 0)/(C on day 0)×100 T: the luminescence intensity of a well to which a test compound was added. C: the luminescence intensity of a well to which the test compound was not added. Day 0: the day on which a test compound was added. Day 3: the day on which evaluation was performed."}, "H1975-EGFRinsSVD cells [4]": {"system": "H1975-EGFRinsSVD cells", "assay": "Cell growth inhibitory effect on mutant EGFR-expressing human cell line (CellTiter-Glo)", "format": "cell-based", "settings": "Homo sapiens, NCI-H1975, 72 h, read-out: GI50 H1975 EGFRinsSVD", "procedure": "as §6, §7, §8\nAdditionally, the ratio of GI50between wild-type EGFR and EGFR exon 20 insertion mutation was determined using the following formula.\nGI50 (A431): GI50 for wild-type EGFR\nGI50 (H1975 EGFRinsSVD): GI50 for EGFR exon 20 insertion mutation"}}, "note": "Where two headings read alike, the source gives them in different places.", "data": [{"compound": "CN(C)C/C=C/C(=O)Nc1cc2c(Nc3ccc(F)c(Cl)c3)ncnc2cc1O[C@H]1CCOC1", "note": "[Afatinib, afatinib, reference compound]", "values": [{"measurement": "T/C (%) on the final evaluation day", "setting": "NIH3T3-EGFRinsASV cells", "result": 46, "unit": "%"}, {"measurement": "T/C (%) on the final evaluation day", "setting": "NIH3T3-EGFRinsSVD cells", "result": 39, "unit": "%"}, {"measurement": "T/C (%) on the final evaluation day", "setting": "H1975-EGFRinsSVD cells [1]", "result": 79, "unit": "%"}, {"measurement": "T/C (%) on the final evaluation day", "setting": "NIH3T3-EGFRinsNPH cells", "result": 59, "unit": "%"}, {"measurement": "I.L.S. (%) (increase in lifespan)", "setting": "[2]", "result": 23, "unit": "%"}, {"measurement": "MST (median survival time)", "setting": "[2]", "result": 54}, {"measurement": "time at which the maximum blood concentration is achieved", "setting": "[3]", "result": "three hours"}]}, {"compound": "C=CC(=O)N[C@H]1CCc2c(-c3cnc4ccccc4c3)c3c(N)ncnc3n2C1", "note": "[Comparative Compound, (S)—N-(4-amino-5-(quinolin-3-yl)-6,7,8,9-tetrahydropyrimido[5,4-b]indolizin-8-yl)acrylamide, reference compound]", "values": [{"measurement": "GI50", "setting": "A431 cells; A431, wild-type EGFR, 3 days", "result": 543, "unit": "nM"}, {"measurement": "GI50", "setting": "H1975-EGFRinsSVD cells [4]; H1975-EGFRinsSVD, D770_N771insSVD, 3 days", "result": 364, "unit": "nM"}]}, {"compound": "C=CC(=O)Nc1cc(Nc2nccc(-c3cn(C)c4ccccc34)n2)c(OC)cc1N(C)CCN(C)C", "note": "[Osimertinib, osimertinib, reference compound]", "values": [{"measurement": "GI50", "setting": "A431 cells", "result": "[…]"}, {"measurement": "GI50", "setting": "H1975-EGFRinsSVD cells [4]", "result": 194, "unit": "nM"}]}]}
